Reference: paper PMC6200399 (ACS chemical biology, 2018)
“And” between values parts separate entries of the source, which are not always exact repeats. Equal entries are not always repeated.

How the values were obtained:
[1] = biological target: T1, RhlR (Pseudomonas aeruginosa, UniProt P54292); test: E. coli RhlR reporter competitive antagonism assay versus 10 μM BHL; assay type: cell-based, P. aeruginosa; conditions: compounds screened at 1 mM in the presence of 10 μM BHL, relative to activation of 10 μM BHL alone
[2] = biological target: LasR (Pseudomonas aeruginosa, UniProt P25084); test: E. coli LasR reporter antagonism assay; assay type: cell-based, P. aeruginosa; conditions: compounds at 1 mM, versus 2 nM OdDHL (Table S3)
[3] = biological target: T1, RhlR; test: E. coli RhlR reporter agonism assay; assay type: cell-based, P. aeruginosa; conditions: for % activation: compounds screened at 10 μM, RhlR activity relative to BHL at 1 mM, E. coli reporter; for EC50: read-out: EC50 (RhlR agonism, E. coli), E. coli RhlR reporter, dose-response; for fold more potent than BHL (RhlR agonism potency): EC50 relative to BHL
[4] = biological target: T1, RhlR; test: P. aeruginosa PAO-JP2; assay type: cell-based; conditions: read-out: EC50 (RhlR agonism, P. aeruginosa); P. aeruginosa PAO-JP2 prhlI-LVAgfp; in the presence of 100 nM OdDHL

Chain of LasR (P25084 whole entry): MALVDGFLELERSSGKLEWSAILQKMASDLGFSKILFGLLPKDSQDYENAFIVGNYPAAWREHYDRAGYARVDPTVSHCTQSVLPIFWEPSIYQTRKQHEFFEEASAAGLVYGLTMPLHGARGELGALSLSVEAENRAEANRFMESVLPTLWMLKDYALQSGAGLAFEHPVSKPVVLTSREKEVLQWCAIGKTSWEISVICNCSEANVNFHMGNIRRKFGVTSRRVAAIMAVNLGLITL
T1 sequence (P54292 whole entry): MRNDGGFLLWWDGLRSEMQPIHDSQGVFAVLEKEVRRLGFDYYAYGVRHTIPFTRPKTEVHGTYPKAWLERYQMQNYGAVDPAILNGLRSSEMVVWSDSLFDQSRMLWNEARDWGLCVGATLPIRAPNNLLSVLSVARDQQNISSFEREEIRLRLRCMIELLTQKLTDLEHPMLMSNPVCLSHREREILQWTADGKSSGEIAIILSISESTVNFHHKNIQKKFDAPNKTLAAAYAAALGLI

1-methyl-cyclopropanoyl HL [Compound 20]
% inhibition [1]: 24%

CCCC(=O)N[C@H]1CCOC1=O [Compound 1, N-butanoyl-L-homoserine lactone, reference compound]
LasR antagonism (% inhibition) [2]: antagonize | % activation [3]: 51% | EC50 ([3]; listed as 1 (BHL)): 8.95 µM | EC50 ([3]; listed as BHL): ~10 µM and ~9 µM

CC(C)CC(=O)N[C@H]1CCOC1=O [Compound 7, isovaleryl HL]
EC50 [4]: 1.42 µM | LasR antagonism (% inhibition) [2]: > 70% | fold more potent than BHL (RhlR agonism potency) [3]: ~10 fold | % activation [3]: 86% | EC50 [3]: 1.02 µM

CCC(C)C(=O)NC1CCOC1=O (stereo not shown) [Compound 8, 2-methylbutanoyl HL]
% activation [3]: 55% | EC50 [3]: 7.77 µM

O=C(NC1CCOC1=O)C1CCC1 (stereo not shown) [Compound 17, cyclobutanoyl HL]
EC50 [4]: 1.41 µM | LasR antagonism (% inhibition) [2]: > 70% | fold more potent than BHL (RhlR agonism potency) [3]: ~10 fold | % activation [3]: 79% | EC50 [3]: 1.78 µM

CCCC(=O)N[C@@H]1CCOC1=O [Compound 25, D-BHL]
% inhibition [1]: 11% | RhlR agonism at 1 mM ([3]; compound at 1 mM, E. coli reporter (Table S2)): marginal activity | % activation [3]: 2%

CCCC(=O)NC1CCSC1=O (stereo not shown) [Compound 26]
EC50 [4]: 3.82 µM | % activation [3]: 71% | EC50 [3]: 4.87 µM

CCCC(=O)N[C@H]1CCNC1=O [Compound 27]
% activation [3]: 1%

CCCC(=O)NC1CCCC1=O (stereo not shown) [Compound 28]
EC50 [4]: 14.3 µM | fold less active than BHL (RhlR agonism potency) ([3]; E. coli reporter EC50 relative to BHL, p < 0.05): under 3 fold | % activation [3]: 35% | EC50 [3]: 27.4 µM

CCCC(=O)NC1CCOC1 (stereo not shown) [Compound 30]
% activation [3]: 0%

Butenyl HL [Compound 14]
EC50 [3]: 6.93 µM

cyclopentyl HL [Compound 3, reference compound]
EC50 [4]: 1.22 µM | % activation [3]: 76% | EC50 [3]: 1.58 µM

cyclopropyl HL [Compound 18]
% activation [3]: 32%

pentenyl HL [Compound 2, reference compound]
% activation [3]: 54% | EC50 [3]: 7.93 µM

propyl HL [Compound 4]
% activation [3]: 25%
